Reference: patent US20110124609A1, “Method of Preventing Type I Diabetes” (Wisconsin Alumni Research Foundation, priority 2009, published 2011)
Entries after “also recorded” stand apart in the source; their conditions may differ.

Assays:
NOD mice [1] = test: 2AMD Type 1 Diabetes Prevention Study: diabetes incidence in NOD mice; assay type: in vivo, mouse; details: female NOD mice
Protocol: Diet. Breeding pairs were fed LabDiet™ Mouse Diet 5010 ad libitum (PMI Nutrition International, St. Louis, Mo.). Experimental mice were fed LabDiet™ Mouse Diet 5K52 meal form (PMI Nutrition International, St. Louis, Mo.). […] At eight weeks of age, mice were placed on 1 of 4 experimental diets: 1) chow, 2) 5010+50 ng 1,25(OH)2D3, or 3) 5010+200 pg and 4) 5010+300 pg 2AMD. In diets/treatments containing 1,25(OH)2D3 or 2AMD, the hormone was added to 1% Wesson® oil and mixed into the diet.
(§1) Evaluation of Diabetic Status. […] Whole blood was centrifuged to obtain serum.

[2] = 2AMD study: serum calcium analysis (atomic absorption); assay type: in vivo, mouse; details: 200 pg and 300 pg 2AMD per day in diet; NOD mice; over 30 weeks (FIG. 2)
Description: Diet. Breeding pairs were fed LabDiet™ Mouse Diet 5010 ad libitum (PMI Nutrition International, St. Louis, Mo.). Experimental mice were fed LabDiet™ Mouse Diet 5K52 meal form (PMI Nutrition International, St. Louis, Mo.). […] Serum Calcium Analysis. Blood was collected from maxillary cheek of each mouse weekly from 8 weeks to 200 days of age.

[3] = 2AMD study: body weight of NOD mice; assay type: in vivo, mouse; details: 200 pg and 300 pg 2AMD per day in diet, over 200 days (FIG. 3)
Description: Diet. Breeding pairs were fed LabDiet™ Mouse Diet 5010 ad libitum (PMI Nutrition International, St. Louis, Mo.). Experimental mice were fed LabDiet™ Mouse Diet 5K52 meal form (PMI Nutrition International, St. Louis, Mo.). […] Evaluation of Diabetic Status. […] Whole blood was centrifuged to obtain serum.

NOD mice [4] = test: 2MD Type 1 Diabetes Prevention Study: diabetes incidence in NOD mice; assay type: in vivo, mouse; details: for Incidence of Type 1 Diabetes: female NOD mice
Description: as §1

NOD mouse = details: of 1,25-(OH)2D3, Zella et al., 2003; cited from earlier work
cellular differentiation = details: background, 19-nor-analogs; cited from earlier work
[5] = background, 19-nor-analogs; cited from earlier work
[6] = 2MD study: body weight of NOD mice; details: for Weights: mean, n = 12, in g (unit assumed)
Protocol: Diet. […] At eight weeks of age, mice were then provided 1 of 4 experimental diets: diet 11 only or diet 11+50 ng 1,25(OH)2D3, diet 11 plus 400 ng 2 MP or diet 11+500 pg 2MD. All purified diets were supplemented with vegetable oil containing fat soluble vitamins A, E, D and K (Suda et al., 1970, J. Nutr. 100: 1049-1052 [diet 11]). In diets containing 1,25(OH)2D3, 2 MP or 2MD, the compounds were added to 1% Wesson® oil and mixed into the purified diet. Diets were fed in agar form (Hayes et al., 1987, J. Nutr. 117:857-865) at 3.5 g food/mouse/day and were replaced three times per week.
Evaluation of Diabetic Status. All experimental mice were weighed weekly and urinalysis was performed weekly starting at 10 weeks of age—Diastix® (Bayer, Elkhart, Ind.) were used to determine glucose levels. If a Diastix® reading was above 1000 mg/dl, the mice were bled from maxillary cheek following a four-hour fast. Whole blood was centrifuged to obtain serum. Concentration of glucose in serum was measured using a enzymatic-colorimetric assay (Glucose Liquicolor®, Stanbio Laboratory, Boerne, Tex.) followed by spectrophotometric analysis. Animals that had two fasting glucose analysis above 300 mg/dl were diagnosed as diabetic and sacrificed via CO2 asphyxiation.

[7] = 2MD study: serum calcium analysis (atomic absorption); details: for serum calcium: NOD mice; for Serum Calcium Levels: mean, n = 12, in mg/dL (unit assumed)
Protocol: Diet. […] Female pups were weaned at three weeks and placed immediately on a purified diet (Suda et al., 1974, J. Nutr. 100: 1049-1052). At eight weeks of age, mice were then provided 1 of 4 experimental diets: diet 11 only or diet 11+50 ng 1,25(OH)2D3, diet 11 plus 400 ng 2 MP or diet 11+500 pg 2MD. All purified diets were supplemented with vegetable oil containing fat soluble vitamins A, E, D and K (Suda et al., 1970, J. Nutr. 100: 1049-1052 [diet 11]). In diets containing 1,25(OH)2D3, 2 MP or 2MD, the compounds were added to 1% Wesson® oil and mixed into the purified diet. Diets were fed in agar form (Hayes et al., 1987, J. Nutr. 117:857-865) at 3.5 g food/mouse/day and were replaced three times per week.
Serum Calcium Analysis. Blood was collected from maxillary cheek of each mouse at 6, 8, 9, 14.3, 15.3 and 28.6 weeks of age. Serum was separated by centrifugation and diluted 1:40 in a 0.1% LaCl2 solution. Calcium concentration was determined by atomic absorption spectrometry (Spectrometer 3110®, Perkin Elmer, Norwalk, Conn.).

[8] = Group 8, 0.5 ng 2MD, age 6 weeks
[9] = Group 8, 0.5 ng 2MD, age 8 weeks
[10] = Group 8, 0.5 ng 2MD, age 9 weeks
[11] = Group 8, 0.5 ng 2MD, age 14.3 weeks
[12] = Group 8, 0.5 ng 2MD, age 15.3 weeks
[13] = Group 8, 0.5 ng 2MD, age 28.6 weeks
[14] = Group 10, 400 ng 2MP, age 6 weeks
[15] = Group 10, 400 ng 2MP, age 8 weeks
[16] = Group 10, 400 ng 2MP, age 9 weeks
[17] = Group 10, 400 ng 2MP, age 14.3 weeks
[18] = Group 10, 400 ng 2MP, age 15.3 weeks
[19] = Group 10, 400 ng 2MP, age 28.6 weeks

## 2α-methyl-19-nor-20(S)-1α,25-dihydroxyvitamin D3 [2AMD]
NOD mice [1]; 200 pg and 300 pg 2AMD daily in diet, versus no treatment
  diabetes incidence at 200 days (FIG. 1): statistically significant reduced incidence of diabetes
NOD mice [1]; 200 pg and 300 pg 2AMD per day in 5010 diet, from 8 weeks to 200 days of age
  Type 1 diabetes disease incidence: 8%
[2]
  serum calcium / hypercalcemia: no statistically significant increase in serum calcium; also recorded: without hypercalcemia
[3]
  body weight: no statistically significant change in body weight; also recorded: not altered

## C=C1/C(=C\C=C2/CCC[C@]3(C)[C@@H]([C@H](C)CCCC(C)(C)O)CC[C@@H]23)C[C@@H](O)C[C@@H]1O [1,25(OH)2D3, 1α,25-dihydroxy-vitamin D3]
NOD mice [1]; 50 ng 1,25(OH)2D3 per day in 5010 diet
  protection against T1DM: completely protected
NOD mice [4]; 50 ng per day in diet 11, 200 days, n = 24
  Incidence of Type 1 Diabetes: 4.2%
NOD mice [4]; 50 ng/day 1,25(OH)2D3 in diet 11, NOD mice
  prevention of diabetes: prevented diabetes
NOD mouse
  prevention of Type 1 diabetes: completely prevent Type 1 diabetes

## C[C@H](CCCC(C)(C)O)[C@H]1CC[C@H]2/C(=C/C=C3C[C@@H](O)C[C@H](O)C3)CCC[C@]12C [1α,25-dihydroxy-19-nor-vitamin D3]
Cellular differentiation
  potency for inducing cellular differentiation: high potency
[5]
  calcium mobilizing activity: very low calcium mobilizing activity

## C=C1[C@H](O)CC(=C/C=C2\CCC[C@@]3(C)C2CCC3[C@@H](C)CCCC(C)(C)O)C[C@H]1O (stereo partly drawn) [2MD, 2-methylene-19-nor-20(S)-1,25-dihydroxyvitamin D3]
NOD mice [4]; 0.5 ng per day in diet 11, 200 days, n = 12
  Incidence of Type 1 Diabetes: 0.0%
NOD mice [4]; 0.5 ng/day 2MD in diet 11, NOD mice, 200 days
  prevention of diabetes / diabetes incidence (FIG. 4): statistically significant reduced incidence of diabetes; also recorded: prevented diabetes
[6]; 0.5 ng 2MD per day in diet 11, NOD mice, over 200 days
  body weight (FIG. 5): no statistically significant change in body weight
[6]; Group 8, 0.5 ng 2MD, age 3 weeks
  Weights: 13.33
[6]; [8]
  Weights: 21.87
[6]; [9]
  Weights: 23.78
[6]; [10]
  Weights: 24.94
[6]; [11]
  Weights: 27.85
[6]; [12]
  Weights: 27.82
[6]; [13]
  Weights: 29.51
[7]; 0.5 ng 2MD per day in diet 11, over 30 weeks (FIG. 6)
  serum calcium: no statistically significant increase in serum calcium; also recorded: moderate elevation of calcium
[7]; [8]
  Serum Calcium Levels: 11.42
[7]; [9]
  Serum Calcium Levels: 11.45
[7]; [10]
  Serum Calcium Levels: 11.55
[7]; [11]
  Serum Calcium Levels: 11.52
[7]; [12]
  Serum Calcium Levels: 11.33
[7]; [13]
  Serum Calcium Levels: 11.37

## C=C1C(O)CC(=CC=C2CCCC3(C)C2CCC3C(C)C)CC1O (stereo not drawn) [2MP, 1α-hydroxy-2-methylene-19-nor-homopregnacalciferol, reference compound]
NOD mice [4]; 400 ng 2 MP per day in diet 11, NOD mice
  protection against diabetes: no protection against diabetes
NOD mice [4]; 400 ng per day in diet 11, 200 days, n = 12
  Incidence of Type 1 Diabetes: 33.0%
[6]; Group 10, 400 ng 2MP, age 3 weeks
  Weights: 13.60
[6]; [14]
  Weights: 22.03
[6]; [15]
  Weights: 23.74
[6]; [16]
  Weights: 24.63
[6]; [17]
  Weights: 26.30
[6]; [18]
  Weights: 26.81
[6]; [19]
  Weights: 27.64
[7]; 400 ng 2 MP per day in diet 11
  serum calcium: moderate elevation of calcium
[7]; [14]
  Serum Calcium Levels: 11.57
[7]; [15]
  Serum Calcium Levels: 11.57
[7]; [16]
  Serum Calcium Levels: 11.55
[7]; [17]
  Serum Calcium Levels: 11.62
[7]; [18]
  Serum Calcium Levels: 11.77
[7]; [19]
  Serum Calcium Levels: 11.66
